Results taken from ChEMBL document CHEMBL1149679 (Bioorg Med Chem Lett, 2007).

Columns and labels:
[1] = target: T1, Polyunsaturated fatty acid lipoxygenase ALOX15 (Oryctolagus cuniculus, UniProt P12530); assay: Inhibition of rabbit 15-lipoxygenase in presence of linoleic acid
T1 sequence (P12530 whole entry): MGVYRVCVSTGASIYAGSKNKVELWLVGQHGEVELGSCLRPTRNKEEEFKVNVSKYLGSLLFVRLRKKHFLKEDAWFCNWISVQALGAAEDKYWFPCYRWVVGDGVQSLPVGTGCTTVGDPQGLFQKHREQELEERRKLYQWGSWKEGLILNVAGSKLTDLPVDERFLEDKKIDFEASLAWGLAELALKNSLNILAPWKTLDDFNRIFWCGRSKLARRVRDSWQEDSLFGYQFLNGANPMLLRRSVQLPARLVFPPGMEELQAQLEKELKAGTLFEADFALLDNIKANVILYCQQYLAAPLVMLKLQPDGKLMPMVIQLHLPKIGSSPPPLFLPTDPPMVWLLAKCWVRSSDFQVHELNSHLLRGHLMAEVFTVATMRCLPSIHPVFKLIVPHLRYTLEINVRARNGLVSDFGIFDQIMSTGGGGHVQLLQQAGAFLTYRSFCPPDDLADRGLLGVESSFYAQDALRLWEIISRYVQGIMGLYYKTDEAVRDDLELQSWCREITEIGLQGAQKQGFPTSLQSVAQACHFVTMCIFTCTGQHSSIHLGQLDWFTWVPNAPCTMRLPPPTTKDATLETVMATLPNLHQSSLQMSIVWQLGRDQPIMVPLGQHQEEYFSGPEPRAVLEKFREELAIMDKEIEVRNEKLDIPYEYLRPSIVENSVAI

[2] = target: T2, Polyunsaturated fatty acid lipoxygenase ALOX12 (Homo sapiens) (UniProt P18054); assay: Inhibition of platelet 12-lipoxygenase at 10 uM
T2 sequence (whole entry): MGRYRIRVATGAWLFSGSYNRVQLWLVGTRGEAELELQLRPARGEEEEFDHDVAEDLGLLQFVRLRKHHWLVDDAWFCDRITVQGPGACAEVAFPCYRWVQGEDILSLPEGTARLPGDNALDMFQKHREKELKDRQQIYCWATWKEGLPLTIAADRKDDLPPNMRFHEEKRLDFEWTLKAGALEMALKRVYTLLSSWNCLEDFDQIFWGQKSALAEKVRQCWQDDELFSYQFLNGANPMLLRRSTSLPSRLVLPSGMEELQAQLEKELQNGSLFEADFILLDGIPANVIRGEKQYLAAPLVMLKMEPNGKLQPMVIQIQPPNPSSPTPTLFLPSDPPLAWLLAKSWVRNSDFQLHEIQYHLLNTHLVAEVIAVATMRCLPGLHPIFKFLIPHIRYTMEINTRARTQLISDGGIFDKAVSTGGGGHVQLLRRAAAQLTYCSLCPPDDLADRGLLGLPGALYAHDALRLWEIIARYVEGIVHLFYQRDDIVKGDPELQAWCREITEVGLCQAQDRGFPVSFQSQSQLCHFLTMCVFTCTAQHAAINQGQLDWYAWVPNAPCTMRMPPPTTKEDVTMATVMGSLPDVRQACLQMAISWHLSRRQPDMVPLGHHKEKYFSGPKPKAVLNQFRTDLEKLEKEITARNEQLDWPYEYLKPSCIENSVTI

[3] = target: T3, Polyunsaturated fatty acid 5-lipoxygenase (Homo sapiens) (UniProt P09917); assay: Inhibition of human 5-lipoxygenase at 10 uM
T3 sequence (whole entry): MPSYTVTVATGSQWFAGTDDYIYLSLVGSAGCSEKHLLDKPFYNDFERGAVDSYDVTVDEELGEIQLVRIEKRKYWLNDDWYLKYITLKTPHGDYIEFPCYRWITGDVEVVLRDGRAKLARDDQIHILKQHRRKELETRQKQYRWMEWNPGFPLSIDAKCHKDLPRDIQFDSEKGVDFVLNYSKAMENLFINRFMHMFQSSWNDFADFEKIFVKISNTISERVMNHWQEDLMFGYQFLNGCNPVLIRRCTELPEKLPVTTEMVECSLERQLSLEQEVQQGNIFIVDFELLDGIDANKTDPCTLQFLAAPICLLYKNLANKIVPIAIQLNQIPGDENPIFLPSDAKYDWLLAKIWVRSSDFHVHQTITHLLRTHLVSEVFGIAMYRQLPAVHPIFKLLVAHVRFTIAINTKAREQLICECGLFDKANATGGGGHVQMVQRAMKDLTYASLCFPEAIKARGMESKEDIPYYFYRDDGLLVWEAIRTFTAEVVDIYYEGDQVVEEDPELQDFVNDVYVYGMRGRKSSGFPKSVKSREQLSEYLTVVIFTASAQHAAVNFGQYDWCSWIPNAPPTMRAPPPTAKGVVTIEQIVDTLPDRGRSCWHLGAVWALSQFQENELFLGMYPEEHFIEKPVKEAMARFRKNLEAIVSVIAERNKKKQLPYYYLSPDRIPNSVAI

[4] = target: T1, Polyunsaturated fatty acid lipoxygenase ALOX15; assay: Inhibition of rabbit 15-lipoxygenase in presence of arachidonic acid
[5] = target: T4, Polyunsaturated fatty acid lipoxygenase ALOX15B (Homo sapiens) (UniProt O15296); assay: Inhibition of human recombinant 15-lipoxygenase over-expressed in CHO cells at 10 uM; format: cell-based
T4 sequence (whole entry): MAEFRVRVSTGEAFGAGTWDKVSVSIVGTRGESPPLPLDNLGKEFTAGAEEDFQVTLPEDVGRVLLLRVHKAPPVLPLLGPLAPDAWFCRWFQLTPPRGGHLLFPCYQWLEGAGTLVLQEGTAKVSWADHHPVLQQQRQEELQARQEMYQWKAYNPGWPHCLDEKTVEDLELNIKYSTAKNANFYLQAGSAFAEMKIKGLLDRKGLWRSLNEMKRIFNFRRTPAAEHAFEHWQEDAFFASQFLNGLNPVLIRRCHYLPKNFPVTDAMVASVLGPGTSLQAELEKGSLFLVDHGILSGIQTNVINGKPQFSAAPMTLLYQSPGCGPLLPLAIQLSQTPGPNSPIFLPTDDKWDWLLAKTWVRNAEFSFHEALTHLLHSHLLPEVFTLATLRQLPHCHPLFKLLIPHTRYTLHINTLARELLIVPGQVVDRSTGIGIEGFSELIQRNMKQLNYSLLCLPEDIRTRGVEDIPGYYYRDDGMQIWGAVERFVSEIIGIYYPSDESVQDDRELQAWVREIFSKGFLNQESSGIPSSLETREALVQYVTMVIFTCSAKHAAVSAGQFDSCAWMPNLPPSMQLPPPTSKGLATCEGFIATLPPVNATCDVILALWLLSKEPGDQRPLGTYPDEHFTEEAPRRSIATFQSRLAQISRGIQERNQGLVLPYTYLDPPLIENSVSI

[6] = target: T5, Polyunsaturated fatty acid 5-lipoxygenase (Homo sapiens, UniProt P09917); assay: Inhibition of 5-lipoxygenase
T5 sequence (P09917 whole entry): T3 sequence (whole entry)

[7] = Cmax in Sprague-Dawley rat at 7 mg/kg, po; format: ADME, organism-based; design: dose 7 mg/kg, route oral; details: in vivo
[8] = Aqueous solubility at pH6.5; format: physicochemical; details: buffer, pH 6.5
[9] = target: T6, Polyunsaturated fatty acid lipoxygenase ALOX12 (Homo sapiens, UniProt P18054); assay: Inhibition of platelet 12-lipoxygenase
T6 sequence (P18054 whole entry): T2 sequence (whole entry)

[10] = Hydrophilicity, log D at pH 6.5; format: physicochemical; details: buffer
[11] = target: T3, Polyunsaturated fatty acid 5-lipoxygenase (Homo sapiens); assay: Inhibition of human 5-lipoxygenase at 3 uM
[12] = target: T2, Polyunsaturated fatty acid lipoxygenase ALOX12 (Homo sapiens); assay: Inhibition of platelet 12-lipoxygenase at 3 uM

Row | Compound | IC50 [1] [nM] | IC50 [4] [nM] | further results
1 | COc1ccc(-c2[nH]c(-c3cccs3)nc2CCNS(=O)(=O)N(C)[C@@H]2CCN(Cc3ccc(Cl)c(Cl)c3)C2)cc1 | 11 | 83 | inhibition [2]: 42%; inhibition [3]: 67%
2 | CCCCCc1ccc(S(=O)(=O)NCCc2nc(-c3cccnc3)[nH]c2-c2ccc(OC)cc2)cc1 | 560 |  | 
3 | COc1ccc(-c2[nH]c(-c3cccs3)nc2CCNS(=O)(=O)N2CCN(c3ccc(Cl)c(Cl)c3)CC2)cc1 | 36 | 133 | inhibition [5]: 84%
4 | CCCCCc1ccc(S(=O)(=O)NCCc2nc(C(C)(C)C)[nH]c2-c2ccc(OC)cc2)cc1 | 1920 | > 10000 | 
5 | CCCCCc1ccc(S(=O)(=O)NCCc2nc(-c3ccccc3)[nH]c2-c2ccc(C(F)(F)F)cc2)cc1 | 72 | 372 | 
6 | COc1ccc(-c2[nH]c(-c3ccccc3)nc2CCNS(=O)(=O)N[C@H]2CCN(Cc3ccccc3)C2)cc1 | 272 | 2410 | 
7 | COc1ccc(-c2[nH]c(-c3ccccc3)nc2CCNS(=O)(=O)N2CCN(c3ccccc3)CC2)cc1 | 212 | 3450 | 
8 | CCCCCc1ccc(S(=O)(=O)NCCc2nc(-c3cccs3)[nH]c2-c2ccc(OC)cc2)cc1 | 6 | 13 | IC50 [6]: > 10000 nM; Cmax [7]: 600 nM; inhibition [2]: 50%; inhibition [3]: 41%; inhibition [5]: 98%; solubility [8]: < 1 µg/mL; IC50 [9]: 9700 nM; logD [10]: > 6
9 | COc1ccc(-c2[nH]c(-c3cccs3)nc2CCNS(=O)(=O)N(C)[C@@H]2CCN(Cc3ccccc3)C2)cc1 | 38 | 375 | 
10 | CCN([C@@H]1CCN(C(C)(C)c2ccccc2)C1)S(=O)(=O)NCCc1nc(-c2cccs2)[nH]c1-c1ccc(OC)cc1 | 10 | 132 | 
11 | CCCCCc1ccc(S(=O)(=O)NCCc2nc(-c3ccccc3)[nH]c2-c2ccccc2)cc1 | 33 | 162 | inhibition [2]: 32%; inhibition [3]: 39%
12 | CCCCCc1ccc(S(=O)(=O)NCCc2nc(-c3ccc(C)cc3)[nH]c2-c2ccc(OC)cc2)cc1 | > 3000 |  | 
13 | COc1ccc(-c2[nH]c(-c3ccccc3)nc2CCNS(=O)(=O)c2ccc(C)cc2)cc1 | 364 | 2800 | 
14 | CCCCCc1ccc(S(=O)(=O)NCCc2nc(-c3ccc(OC)cc3)[nH]c2-c2ccc(OC)cc2)cc1 | > 10000 |  | 
15 | COc1ccc(-c2[nH]c(-c3ccccc3)nc2CCNS(=O)(=O)N(C)[C@@H]2CCN(Cc3ccccc3)C2)cc1 | 31 | 186 | inhibition [5]: 70%
16 | CCCCCc1ccc(S(=O)(=O)NCCc2[nH]cnc2-c2ccc(OC)cc2)cc1 | > 10000 |  | 
17 | CCCCCc1ccc(S(=O)(=O)NCCc2nc(-c3ccccc3)[nH]c2-c2ccc(F)cc2)cc1 | 59 | 261 | inhibition [2]: 47%; inhibition [3]: 45%
18 | CCCCCN1CCN(S(=O)(=O)NCCc2nc(-c3cccs3)[nH]c2-c2ccc(OC)cc2)CC1 | 91 | 646 | 

Row | Compound | IC50 [1] [nM] | IC50 [4] [nM] | further results
19 | CCN([C@@H]1CCN(C(C)c2ccc(F)cc2)C1)S(=O)(=O)NCCc1nc(-c2cccs2)[nH]c1-c1ccc(OC)cc1 (stereo partly specified) |  |  | inhibition [5]: 96%
20 | COc1ccc(-c2[nH]c(-c3ccccc3)nc2CCNS(=O)(=O)N2CCN(c3ccc(Cl)c(Cl)c3)CC2)cc1 | 55 | 378 | 
21 | CCCCCc1ccc(S(=O)(=O)NCCc2nc(C3CC3)[nH]c2-c2ccc(OC)cc2)cc1 | > 10000 | > 10000 | 
22 | CCCCCc1ccc(S(=O)(=O)NCCCc2nc(-c3ccccc3)[nH]c2-c2ccc(OC)cc2)cc1 | 140 | 914 | 
23 | COc1ccc(-c2[nH]c(-c3cccs3)nc2CCNS(=O)(=O)N2CCN(c3ccccc3Cl)CC2)cc1 | 45 | 132 | 
24 | CCCCCc1ccc(S(=O)(=O)NCCc2nc(-c3csc(C)n3)[nH]c2-c2ccc(OC)cc2)cc1 | 720 |  | 
25 | COc1ccc(-c2[nH]c(-c3ccccc3)nc2CCNS(=O)(=O)N[C@@H]2CCN(Cc3ccccc3)C2)cc1 | 83 | 719 | 
26 | COc1ccc(-c2[nH]c(-c3ccccc3)nc2CCNS(=O)(=O)N(C)[C@H]2CCN(Cc3ccccc3)C2)cc1 | 80 | 82.2 | 
27 | CCCCCc1ccc(S(=O)(=O)NCCCc2nc(-c3cccs3)[nH]c2-c2ccc(OC)cc2)cc1 | 53 | 396 | 
28 | CCCCCc1ccc(S(=O)(=O)NCCc2nc(C)[nH]c2-c2ccc(OC)cc2)cc1 | > 10000 |  | 
29 | CCCCCc1ccc(S(=O)(=O)NCCc2nc(-c3ccccn3)[nH]c2-c2ccc(OC)cc2)cc1 | 970 | 5320 | 
30 | CCCCCc1ccc(S(=O)(=O)NCCc2nc(-c3ccccc3)[nH]c2-c2ccc(OC)cc2)cc1 | 14 | 50 | inhibition [11]: 15%; inhibition [5]: 83%; inhibition [12]: 45%
31 | CCCCCc1ccc(S(=O)(=O)NCCc2nc(-c3ccc(Cl)cc3)[nH]c2-c2ccc(OC)cc2)cc1 | 21 | 1100 | 
32 | CCCCCc1ccc(S(=O)(=O)NCCc2nc(-c3ccncc3)[nH]c2-c2ccc(OC)cc2)cc1 | 87 | 3210 | 
33 | CCCCCc1ccc(S(=O)(=O)NCCc2nc(-c3cccc([N+](=O)[O-])c3)[nH]c2-c2ccc(OC)cc2)cc1 | 99 | 1100 | 
34 | CCCCCc1ccc(S(=O)(=O)NCCc2nc(-c3cnccn3)[nH]c2-c2ccc(OC)cc2)cc1 | 2810 |  | 
35 | CCCCCc1ccc(S(=O)(=O)NCCc2nc(-c3ccccc3)[nH]c2-c2cccc(OC)c2)cc1 | 82 | 531 | 
